Results: article PMC8389922, “First-in-Class Cyclic Temporin L Analogue: Design, Synthesis, and Antimicrobial Assessment” (Journal of Medicinal Chemistry, 2021)
In brackets after ≈: the same amount, converted by molar mass. Bridge positions count the residues as written; N and C are the ends. Square brackets hold non-standard residues; d marks the D form. Peptide text beside a SMILES is read from it.

Experiments:
in vitro = conditions: male, human, 90% fresh human serum
Description: Peptides were incubated with 90% fresh human serum at 37 ± 1 °C within 12 h.[69] The percentage of intact peptide was monitored by calculating the peak area of the chromatogram from RP-HPLC analysis.
The peptide was incubated in a 1.5 mL eppendorf tube with human serum at a final concentration of 0.2 mM, and the mixture was incubated at 37 ± 1 °C for different periods (0.25, 0.75, 1.5, 2, 3, 4, 6, 7, 8, and 12 h). After the incubation period, an aliquot of reaction solution was taken and added MeCN (double volume respect to the aliquot) for the precipitation of serum proteins present in human serum. The produced cloudy solution was cooled (4 °C) for 15 min and then centrifuged at 13 000 rpm for 10 min to remove the serum protein as pellet. Then, the supernatant was analyzed by RP-UHPLC using a linear elution gradient from 10 to 90% MeCN (0.1% TFA) in water (0.1% TFA) over 20 min. A flow rate of 1 mL/min was employed, and the absorbance of the eluting peaks was detected at 220 nm. The proteolytic stability assay was repeated in triplicate.

[1] = Thioflavin T aggregation in LUVs; format: physicochemical; conditions: tested 5–50 μM, 25 °C, pH 7.4, ThT emission 482 nm; for peptide concentration at which oligomerization (ThT fluorescence plateau) was observed: DOPE/DOPG/CL (63/23/12) LUVs; for peptide concentration at which aggregation (increase of ThT fluorescence) was observed: DOPG/CL (58/42) LUVs
Source text: We used large unilamellar vesicles (LUVs) made of phosphatidylethanolamine (DOPE), phosphatidylglycerol (DOPG), and cardiolipin (CL) (63/23/12) to mimic lipid composition of the cytoplasmic membrane of Gram-negative bacteria. Gram-positive membranes were otherwise mimicked using LUVs made of DOPG and CL (58/42).
TEXT PRINTED IN THE PICTURE: (c) 9: DOPG/CL mimicking Gram-positive membrane: θ222/ θ208: 1.7 | (c) 12: DOPG/CL mimicking Gram-positive membrane: θ222/ θ208: 2.6 | (c) 17: DOPG/CL mimicking Gram-positive membrane: θ222/ θ208: 1.9 | (f) 9: DOPE/DOPG/CL mimicking Gram-negative membrane: θ222/ θ208: 1.8 | (f) 12: DOPE/DOPG/CL mimicking Gram-negative membrane: θ222/ θ208: 2.1 | (f) 17: DOPE/DOPG/CL mimicking Gram-negative membrane: θ222/ θ208: 1.7
The fluorescent dye Thioflavin T (ThT) is widely used to quantify peptide aggregation in the presence of bacterial membranes represented by LUVs (Gram-positive, DOPG/CL, 58/42 ratio in moles; Gram-negative DOPG/DOPE/CL, 63/23/12 ratio in moles). Once lipid films were prepared as described above, they were hydrated with 100 mM NaCl, 10 mM Tris-HCl, […] ThT buffer, pH = 7.4, vortexed for 1 h, freeze-thawed six times, and extruded 10 times through polycarbonate membranes with 0.1 μm diameter pores.[80] Peptides were dissolved in water to have a stock solution of 2 mM. Peptide aggregation was quantified by treating LUVs with peptide concentrations of 5, 10, 15, 20, 30, and 50 μM. Fluorescence was measured before and after the addition of peptide at 25 °C using a Varian Cary Eclipse fluorescence spectrometer. ThT fluorescence emission was measured at 482 nm (slit width, 5 nm) after excitation at 450 nm (slit width, 10 nm). In the presence of aggregated peptides, ThT combines with them giving an excitation maximum at 450 nm and an increased emission at 482 nm.[62] Peptide aggregation was calculated as %A = (Ff – F0)/(Fmax – F0) × 100, where Ff indicates the value of fluorescence after peptide addition, F0 is the initial fluorescence in the absence of peptide, and Fmax is the fluorescence maximum obtained immediately after peptide addition.

[2] = tested on: S. epidermidis ATCC 12228; format: cell-based, Staphylococcus epidermidis
Method in brief: (§1)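 MICs were determined by broth microdilution, with bacteria at a final 1 × 10^6 CFU/mL and peptides tested from 100 to 0.78 μM.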

[3] = Membrane fluidity, Laurdan GP value; conditions: lipid 100 μM, Laurdan 1 μM, PBS pH 7.4, 25 °C, 10 min; for GPlaurdan DOPG/DOPE/CL + cmpd: LUVs alone –0.14; for GPlaurdan DOPG/CL + cmpd: LUVs alone –0.32
Description: A membrane fluidity study was performed using Laurdan, a probe with the capacity to insert into membranes and to distribute between liquid phases,[66] changing its emission spectrum.[67] In particular, the maximum emission wavelength of Laurdan is 490 nm when phospholipids are in a disordered phase and it shifts to 440 nm when lipids are in a more packed phase. The generalized polarization (GP) parameter was used to measure quantitatively the emission shift of the Laurdan probe.[68] […] LUVs fluidity was evaluated before and after the addition of 12 and 9 at 25 °C. Before the addition of both peptides, emission of LUVs, mimicking both Gram-positive and Gram-negative membranes, indicated the presence of a disordered phase with a maximum at 490 nm (Table 3). […] In fact, GP parameter indicated the presence of a disordered phase for both Gram-positive and Gram-negative liposomes (Table 3).
Laurdan is extensively used as a fluorescent probe in membrane fluidity study.[79] Laurdan emission spectra encapsulated in large unilamellar vesicles (LUVs) are centered at 490 nm when the lipids are in a disordered phase and the emission shifts to 440 nm when the lipids are in a more packed phase. The preparation of LUVs was performed using the extrusion method.[79] To mimic the lipid composition of Gram-positive and Gram-negative membranes, we used LUVs made of DOPG/CL (58/42 ratio in moles) and DOPG/DOPE/CL (63/23/12 ratio in moles), respectively. First, stock solutions of lipids in chloroform were prepared and the assay was performed using a final lipid concentration of 100 μM. Laurdan (1 μM) was added to chloroform/lipids solution before the evaporation of organic solvent. The mixture of lipids and probe was dried under nitrogen gas stream and freeze-dried overnight. Then, lipid film with Laurdan was hydrated with PBS 1× buffer, pH = 7.4, vortexed for 1 h, and freeze-thawed six times and extruded 10 times through polycarbonate membranes with 0.1 μm diameter pores, obtaining LUVs with encapsulated Laurdan. Stock solutions of 2 mM of linear peptide 9 and lactam-bridged analogue 12 were prepared by dissolving peptides in water. The influence of peptides on membrane fluidity was evaluated at 5 and 30 μM. The peptide was added to LUVs + Laurdan probe, and after 10 min, the fluorescence spectra were recorded using a 1 cm path length quartz cell, thermostated at 25 °C. To measure the Laurdan emission shift and to quantify the variation of membrane fluidity, we calculated the generalized polarization (GP) as GP = (I440 – I490)/(I440 + I490).

P. aeruginosa ATCC 27853 = format: cell-based, Pseudomonas aeruginosa
Method in brief: as §1

Compound | half-life at 0.2 mM (in vitro) | remaining at 1.5 h, 0.2 mM (in vitro) | peptide concentration at which oligomerization (ThT fluorescence plateau) was observed [1] | peptide concentration at which aggregation (increase of ThT fluorescence) was observed [1] | MIC S. epidermidis ATCC 12228 [2] | GPlaurdan DOPG/DOPE/CL + cmpd ([3]; peptide 5 μM) | GPlaurdan DOPG/CL + cmpd ([3]; peptide 5 μM) | GPlaurdan DOPG/DOPE/CL + cmpd ([3]; peptide 30 μM) | GPlaurdan DOPG/CL + cmpd ([3]; peptide 30 μM) | MIC P. aeruginosa ATCC 27853 (P. aeruginosa ATCC 27853)
CC[C@H](C)[C@H](NC(=O)[C@H](CCCNC(=N)N)NC(=O)[C@@H]1CCC(=O)NCCCC[C@H](NC(=O)[C@H](Cc2ccccc2)NC(=O)[C@H](Cc2c[nH]c3ccccc23)NC(=O)[C@@H]2CCCN2C(=O)[C@@H](NC(=O)[C@@H](N)Cc2ccccc2)C(C)C)C(=O)N[C@@H](CCCCN)C(=O)N[C@@H](Cc2ccccc2)C(=O)N[C@H](CC(C)C)C(=O)N1)C(=O)N[C@@H](CC(C)C)C(N)=O [compound 12] (H-FVPWFKKF[dL]ERIL-NH2; lactam 6-10) | ~6 h | ~70% | 10 µM | 30 µM | 3.12 µM (≈ 5.32 µg/mL) | –0.07 | –0.23 | 0.1 | 0.04 | 100 µM (≈ 170 µg/mL)
CC[C@H](C)[C@H](NC(=O)[C@H](CCCNC(=N)N)NC(=O)[C@@H]1CCCCn2cc(nn2)C[C@H](NC(=O)[C@H](Cc2ccccc2)NC(=O)[C@H](Cc2c[nH]c3ccccc23)NC(=O)[C@@H]2CCCN2C(=O)[C@@H](NC(=O)[C@@H](N)Cc2ccccc2)C(C)C)C(=O)N[C@@H](CCCCN)C(=O)N[C@@H](Cc2ccccc2)C(=O)NC(CC(C)C)C(=O)N1)C(=O)N[C@@H](CC(C)C)C(N)=O (stereo in doubt) [compound 17] |  |  | 10 µM | 50 µM | 1.56 µM (≈ 2.67 µg/mL) |  |  |  |  | >100 µM
